In test [1] the test system is B. fragilis. Put plainly: Antibiotic activity against B. fragilis. Format: cell-based.
For test [2], the system named is S.aureus UC-746. The test can be described thus: Minimum Inhibitory Concentration, microplate broth-dilution, S. aureus UC-746. As to conditions: Staphylococcus aureus, UC746, read-out: MIC S.aureus UC-746, BHI broth; strain resistant to tetracycline.
The test system of test [3] is S. lutea. The test can be described thus: Antibiotic activity against S. lutea. Format: cell-based.
Test [4] deals with K. pneumoniae. The test can be described thus: Antibiotic activity against K. pneumoniae. Type of test: cell-based.
In test [5] the test system is C. perfringens. Format: cell-based.
Test [6] deals with S.aureus UC-76. The test can be described thus: Minimum Inhibitory Concentration, microplate broth-dilution, S. aureus UC-76. Particulars: Staphylococcus aureus, UC76, read-out: MIC S.aureus UC-76, BHI broth; sensitive strain.
Test [7] deals with S.pyrogenes UC-152. The test can be described thus: Minimum Inhibitory Concentration, microplate broth-dilution, S. pyrogenes UC-152. As to conditions: read-out: MIC S.pyrogenes UC-152, BHI broth.
For test [8], the system named is S.lutea UC-130. Put plainly: Dipped disc agar diffusion assay, S. lutea. Particulars: Micrococcus luteus, UC130, 16 h, read-out: Agar Diffusion 1 mg./ml. S.lutea UC-130 (inhibition zone). In general terms: In agar diffusion tests the substance spreads into inoculated agar from a disc or well.
The test system of test [9] is S.aureus UC-570. The test can be described thus: Minimum Inhibitory Concentration, microplate broth-dilution, S. aureus UC-570. As to conditions: Staphylococcus aureus, UC570, read-out: MIC S.aureus UC-570, BHI broth; sensitive strain.
For test [10], the system named is Mycobacterium avium. Put plainly: Antibiotic activity against Mycobacterium avium. Format: cell-based.

Each structure is given as a SMILES string. ≈ marks a conversion by molar mass, not a printed value.

The text below walks through data of patent publication US4363922A, “Esters of antibiotic nodusmicin” (priority 1981, dated 1982).

As a reminder, the MIC is the lowest concentration found to suppress growth. As for `COC1CC2C=CC3C4OC2(C(C)=CC(C)C(C(C)O)OC1=O)C3C(O)C(C)C4O` (stereo not shown) [U-59,761, nodusmicin], the “activity against B. fragilis” value in test [1] is on record as “active”. Also, the MIC in [2] was 250 µg/mL (≈ 592 µM); in test [6] it was 125 µg/mL (≈ 296 µM); in test [7], 500 µg/mL (≈ 1180 µM); in [9], 250 µg/mL (≈ 592 µM). Moreover, in test [3], the “activity against S. lutea” value was “active”. Also, in [4], the “activity against K. pneumoniae” value is reported as “active”. Further, the “activity against C. perfringens” value in test [5] is reported as “active”. Moreover, the zone of inhibition at 1000 µg/mL in [8] was 40 mm. Besides, the “activity against Mycobacterium avium” value in test [10] is on record as “active”.
